# Measured values reported in US8735584B2 (Merck Patent GmbH, priority 2008, dated 2014).
# Molecular target: T1, GST-Aurora A (Homo sapiens, UniProt O14965)
# T1 construct: N-terminal GST fusion with full length Aurora A (1-403 amino acids); purchased Carna Biosciences 05-101
# T1 sequence (O14965 1-403): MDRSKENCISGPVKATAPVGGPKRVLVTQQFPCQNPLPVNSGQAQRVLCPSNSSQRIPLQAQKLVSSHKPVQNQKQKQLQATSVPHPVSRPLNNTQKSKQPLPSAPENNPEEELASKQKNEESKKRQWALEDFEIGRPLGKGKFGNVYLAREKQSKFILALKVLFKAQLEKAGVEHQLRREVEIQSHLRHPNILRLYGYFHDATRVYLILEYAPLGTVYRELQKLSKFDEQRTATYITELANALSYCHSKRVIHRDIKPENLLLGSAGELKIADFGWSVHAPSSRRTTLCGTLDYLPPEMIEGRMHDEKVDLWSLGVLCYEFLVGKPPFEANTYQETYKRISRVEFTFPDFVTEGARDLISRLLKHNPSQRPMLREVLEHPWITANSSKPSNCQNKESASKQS
# Experiment: Aurora A IC50, Caliper LC3000 mobility shift assay
# Type: biochemical
# Settings: LC3000 method; 15 uM ATP (the KM value); read-out: Aurora Kinase A Activity (IC50)
# Summary of the method: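 GST-tagged full-length Aurora A (0.067 ng/ul) with 15 uM ATP (KM) and 1 uM FITC-LRRASLG peptide in 100 mM HEPES pH 7.5, 1 mM MgCl2, 1 mM DTT, Brij-35; 90 min at 25 C, EDTA stop. Off-chip mobility shift read of substrate-to-product conversion; IC50 from sigmoidal dose-response.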
row,SMILES,IC50 [nM]
1,O=C(Cn1cc(Nc2ccnc3[nH]c(=O)c4ccc(F)cc4c23)cn1)Nc1ccc(C(F)(F)F)cc1 [Compound 422],11 to 100
2,O=C(Cn1cc(Nc2ccnc3[nH]c(=O)c4ccccc4c23)cn1)Nc1ccc(F)cc1 [Compound 430],> 100
3,O=C(Cn1cc(Nc2ccnc3[nH]c(=O)c4ccccc4c23)cn1)Nc1ccc(C(F)(F)F)cc1 [Compound 431],> 100
4,"O=C(Nc1ccc(Nc2ccnc3[nH]c(=O)c4ccccc4c23)cc1)c1cccc2c1OCC2 [Compound 433, 2,3-Dihydro-benzofuran-7-carboxylic acid [4-(6-oxo-5,6-dihydro-benzo[c][1,8]naphthyridin-1-ylamino)-phenyl]-amide]",11 to 100
5,"O=C(Nc1ccc(Nc2ccnc3[nH]c(=O)c4c(C(=O)O)cccc4c23)cc1)c1ccccc1 [Compound 434, 1-[4-Benzoylamino-phenylamino)-6-oxo-5,6-dihydro-benzo[c][1,8]naphthyridin-7-carboxylic acid]",11 to 100
6,"CN(C)CCCNC(=O)c1cccc2c1c(=O)[nH]c1nccc(Nc3ccc(NC(=O)c4ccccc4)cc3)c12 [Compound 436, 1-(4-Benzoylamino-phenylamino)-6-oxo-5,6-dihydro-benzo[c][1,8]naphthyridine-7-carboxylic acid (3-dimethylamino-propyl)-amide]",11 to 100
7,"O=C(Nc1ccc(Nc2ccnc3[nH]c(=O)c4c(O)cccc4c23)cc1)c1ccc(F)cc1C(F)(F)F [Compound 445, 4-Fluoro-N-[4-(7-hydroxy-6-oxo-5,6-dihydro-benzo[c][1,8]naphthyridin-1-ylamino)-phenyl]-2-trifluoromethyl-benzamide]",11 to 100
8,"O=C(Nc1ccc(Nc2ccnc3[nH]c(=O)c4c(O)cccc4c23)cc1)c1ccccc1 [Compound 446, N-[4-(7-Hydroxy-6-oxo-5,6-dihydro-benzo[c][1,8]naphthyridin-1-ylamino)-phenyl]-benzamide]",11 to 100
9,O=C(Nc1ccc(Nc2ccnc3[nH]c(=O)c4c(OCCN5CCOCC5)cccc4c23)cc1)c1ccccc1 [Compound 447],11 to 100
10,"CCN(Cc1ccccc1)c1ccc2c(=O)[nH]c3ncccc3c2c1 [Compound 449, 9-(Benzyl(ethyl)amino)benzo[c][1,8]naphthyridin-6(5H)-one]",> 100
11,"O=c1[nH]c2ncccc2c2cc(NCc3ccc(Cl)cc3)ccc12 [Compound 452, 9-(4-Chlorobenzylamino)benzo[c][1,8]naphthyridin-6(5H)-one]",> 100
12,"CCOC(=O)CCCNc1ccc2c(=O)[nH]c3ncccc3c2c1 [Compound 460, Ethyl 4-(6-oxo-5,6-dihydrobenzo[c][1,8]naphthyridin-9-ylamino)butanoate]",> 100
13,"O=c1[nH]c2ncccc2c2cc(NCc3c(F)cccc3C(F)(F)F)ccc12 [Compound 461, 9-(2-Fluoro-6-(trifluoromethyl)benzylamino)benzo[c][1,8]naphthyridin-6(5H)-one]",> 100
14,"N#Cc1ccccc1CNc1ccc2c(=O)[nH]c3ncccc3c2c1 [Compound 462, 2-((6-oxo-5,6-dihydrobenzo[c][1,8]naphthyridin-9-ylamino)methyl)benzonitrile]",> 100
15,"N#Cc1cccc(CNc2ccc3c(=O)[nH]c4ncccc4c3c2)c1 [Compound 463, 3-((6-Oxo-5,6-dihydrobenzo[c][1,8]naphthyridin-9-ylamino)methyl)benzonitrile]",> 100
16,"O=c1[nH]c2ncccc2c2cc(NCc3ccc(F)cc3C(F)(F)F)ccc12 [Compound 464, 9-(4-Fluoro-2-(trifluoromethyl)benzylamino)benzo[c][1,8]naphthyridin-6(5H)-one]",> 100
17,"O=c1[nH]c2ncccc2c2cc(NCc3cccc([N+](=O)[O-])c3)ccc12 [Compound 465, 9-(3-Nitrobenzylamino)benzo[c][1,8]naphthyridin-6(5H)-one]",> 100

# Further lines, results first:
row,IC50 [nM],SMILES
1,< 11,"COc1cc2c(=O)[nH]c3nccc(Nc4ccc(NC(=O)c5ccc(F)cc5C(F)(F)F)cc4)c3c2cc1OC [Compound 416, 4-Fluoro-N-[4-(8,9-dimethoxy-6-oxo-5,6-dihydro-benzo[c][1,8]naphthyridin-1-ylamino)-phenyl]-2-trifluoromethyl-benzamide]"
2,< 11,"O=C(Nc1ccc(Nc2ccnc3[nH]c(=O)c4ccc(F)cc4c23)cc1)c1ccc(F)c(F)c1 [Compound 417, 3,4-Difluoro-N-[4-(9-fluoro-6-oxo-5,6-dihydro-benzo[c][1,8]naphthyridin-1-ylamino)-phenyl]-benzamide]"
3,< 11,"O=C(Nc1ccc(Nc2ccnc3[nH]c(=O)c4ccc(F)cc4c23)cc1)c1cccc(F)c1F [Compound 418, 2,3-Difluoro-N-[4-(9-fluoro-6-oxo-5,6-dihydro-benzo[c][1,8]naphthyridin-1-ylamino)-phenyl]-benzamide]"
4,< 11,"O=C(Nc1ccc(Nc2ccnc3[nH]c(=O)c4ccc(F)cc4c23)cc1)c1ccc(F)cc1 [Compound 419, 4-Fluoro-N-[4-(9-fluoro-6-oxo-5,6-dihydro-benzo[c][1,8]naphthyridin-1-ylamino)-phenyl]-benzamide]"
5,< 11,"O=C(Nc1ccc(Nc2ccnc3[nH]c(=O)c4ccc(F)cc4c23)c(F)c1)c1ccc(F)cc1C(F)(F)F [Compound 420, 4-Fluoro-N-[3-fluoro-4-(9-fluoro-6-oxo-5,6-dihydro-benzo[c][1,8]naphthyridin-1-ylamino)-phenyl]-2-trifluoromethyl-benzamide]"
6,11 to 100,O=C(Cn1cc(Nc2ccnc3[nH]c(=O)c4ccc(F)cc4c23)cn1)Nc1ccc(F)cc1 [Compound 421]
7,< 11,"CCOC(=O)c1cccc2c1c(=O)[nH]c1nccc(Nc3ccc(NC(=O)c4ccccc4)cc3)c12 [Compound 423, 1-[4-Benzoylamino-phenylamino)-6-oxo-5,6-dihydro-benzo[c][1,8]naphthyridin-7-carboxylic acid ethyl ester]"
8,< 11,"O=C(Nc1ccc(Nc2ccnc3[nH]c(=O)c4ccccc4c23)cc1)c1cccc(F)c1F [Compound 432, 2,3-Difluoro-N-[4-(6-oxo-5,6-dihydro-benzo[c][1,8]naphthyridin-1-ylamino)-phenyl]-benzamide]"
9,< 11,"CN(C)CCNC(=O)c1cccc2c1c(=O)[nH]c1nccc(Nc3ccc(NC(=O)c4ccccc4)cc3)c12 [Compound 435, 1-[4-Benzoylamino-phenylamino)-6-oxo-5,6-dihydro-benzo[c][1,8]naphthyridin-7-carboxylic acid 2-dimethylamino-ethyl amide]"
10,< 11,"O=C(Nc1ccc(Nc2ccnc3[nH]c(=O)c4c(C(=O)NCCCN5CCOCC5)cccc4c23)cc1)c1ccccc1 [Compound 437, 1-[4-Benzoylamino-phenylamino)-6-oxo-5,6-dihydro-benzo[c][1,8]naphthyridin-7-carboxylic acid 3-morpholin-4-yl-propyl amide]"
11,< 11,"O=C(Nc1ccc(Nc2ccnc3[nH]c(=O)c4c(C(=O)NCCO)cccc4c23)cc1)c1ccccc1 [Compound 438, 1-[4-Benzoylamino-phenylamino)-6-oxo-5,6-dihydro-benzo[c][1,8]naphthyridin-7-carboxylic acid 2-hydroxy ethyl amide]"
12,< 11,"O=C(Nc1ccc(Nc2ccnc3[nH]c(=O)c4c(C(=O)O)cccc4c23)cc1)c1ccc(F)cc1C(F)(F)F [Compound 439, 1-[4-(4-Fluoro-2-trifluoromethyl-benzoylamino)-phenylamino)-6-oxo-5,6-dihydro-benzo[c][1,8]naphthyridin-7-carboxylic acid]"
13,< 11,"CN(C)CCNC(=O)c1cccc2c1c(=O)[nH]c1nccc(Nc3ccc(NC(=O)c4ccc(F)cc4C(F)(F)F)cc3)c12 [Compound 440, 1-[4-(4-Fluoro-2-trifluoromethyl-benzoylamino)-phenylamino)-6-oxo-5,6-dihydro-benzo[c][1,8]naphthyridin-7-carboxylic acid 2-dimethylamino-ethyl amide]"
14,< 11,CN(C)CCCNC(=O)c1cccc2c1c(=O)[nH]c1nccc(Nc3ccc(NC(=O)c4ccc(F)cc4C(F)(F)F)cc3)c12 [Compound 441]
15,< 11,"O=C(Nc1ccc(Nc2ccnc3[nH]c(=O)c4c(C(=O)NCCN5CCOCC5)cccc4c23)cc1)c1ccc(F)cc1C(F)(F)F [Compound 442, 1-[4-(4-Fluoro-2-trifluoromethyl-benzoylamino)-phenylamino]-6-oxo-5,6-dihydro-benzo[c][1,8]naphthyridine-7-carboxylic acid (2-morpholin-4-yl-ethyl)-amide]"
16,< 11,"O=C(Nc1ccc(Nc2ccnc3[nH]c(=O)c4c(C(=O)NCCCN5CCOCC5)cccc4c23)cc1)c1ccc(F)cc1C(F)(F)F [Compound 443, 1-[4-(4-Fluoro-2-trifluoromethyl-benzoylamino)-phenylamino)-6-oxo-5,6-dihydro-benzo[c][1,8]naphthyridin-7-carboxylic acid 3-morpholin-4-yl-propyl amide]"
17,< 11,"O=C(Nc1ccc(Nc2ccnc3[nH]c(=O)c4c(C(=O)NCCO)cccc4c23)cc1)c1ccc(F)cc1C(F)(F)F [Compound 444, 1-[4-(4-Fluoro-2-trifluoromethyl-benzoylamino)-phenylamino)-6-oxo-5,6-dihydro-benzo[c][1,8]naphthyridin-7-carboxylic acid 2-hydroxy ethyl amide]"
